# From patent US8357406B2, “Method for preparing raw material for functional foods from barley or wheat seeds” (priority 2009, dated 2013)
# Columns and labels:
# Format in all cases: biochemical
# [1] = DPPH radical scavenging activity; conditions: 0.4 mM DPPH, room temperature 10 min, absorbance 517 nm; average±SD of three measurements
# Description: For use in this assay, the samples prepared in the Examples and Comparative Examples were lyophilised and/or dried and pulverized into powders.
# The samples were evaluated for DPPH radical scavenging activity according to the Brand-Williams method (Brand-Williams et al., Use of a free radical method to evaluate antioxidant activity. Food Sci. Technol. 28(1): 25-30, (1995)). The samples were added at various concentrations to 0.4 mM DPPH which was then incubated at room temperature for 10 min, followed by measuring absorbance at 517 nm.
# (§1) The data are average±standard deviation of three measurements.
# For the positive control, the commercially available antioxidant BHA ([…], butylated hydroxy anisole) was employed.
# [2] = Superoxide anion radical scavenging activity (NBT reduction method, xanthine/xanthine oxidase system); conditions: 25 mU/mL xanthine oxidase, 0.05 mM xanthine, 0.6 mM NBT, 25° C. 20 min, absorbance 560 nm; average±SD of three measurements
# Description: Superoxide anion radical scavenging activity was evaluated by the NBT (nitro blue tetrazolium) reduction method in which NBT is reduced by the superoxide anion radicals formed in a xanthine/xanthine oxydase system.
# Along with 25 mU/mL of xanthine oxidase, the samples were added at various concentrations to 1.5 mL of a reaction solution containing 50 mM potassium phosphate buffer (pH 7.8), 0.05 mM xanthine, and 0.6 mM NBT, and incubated at 25° C. for 20 min before measuring absorbance at 560 nm.
# as §1
# For a positive control, the commercially available antioxidant BHA ([…], butylated hydroxy anisole) was employed.
# [3] = molecular target: xanthine oxidase (Homo sapiens, UniProt P47989); assay: Inhibitory activity against xanthine oxidase (uric acid production, absorbance at 290 nm); conditions: samples 1 mg/mL, 50 mU/ml xanthine oxidase; average±SD of three measurements
# Sequence of xanthine oxidase (P47989 whole entry, species assumed): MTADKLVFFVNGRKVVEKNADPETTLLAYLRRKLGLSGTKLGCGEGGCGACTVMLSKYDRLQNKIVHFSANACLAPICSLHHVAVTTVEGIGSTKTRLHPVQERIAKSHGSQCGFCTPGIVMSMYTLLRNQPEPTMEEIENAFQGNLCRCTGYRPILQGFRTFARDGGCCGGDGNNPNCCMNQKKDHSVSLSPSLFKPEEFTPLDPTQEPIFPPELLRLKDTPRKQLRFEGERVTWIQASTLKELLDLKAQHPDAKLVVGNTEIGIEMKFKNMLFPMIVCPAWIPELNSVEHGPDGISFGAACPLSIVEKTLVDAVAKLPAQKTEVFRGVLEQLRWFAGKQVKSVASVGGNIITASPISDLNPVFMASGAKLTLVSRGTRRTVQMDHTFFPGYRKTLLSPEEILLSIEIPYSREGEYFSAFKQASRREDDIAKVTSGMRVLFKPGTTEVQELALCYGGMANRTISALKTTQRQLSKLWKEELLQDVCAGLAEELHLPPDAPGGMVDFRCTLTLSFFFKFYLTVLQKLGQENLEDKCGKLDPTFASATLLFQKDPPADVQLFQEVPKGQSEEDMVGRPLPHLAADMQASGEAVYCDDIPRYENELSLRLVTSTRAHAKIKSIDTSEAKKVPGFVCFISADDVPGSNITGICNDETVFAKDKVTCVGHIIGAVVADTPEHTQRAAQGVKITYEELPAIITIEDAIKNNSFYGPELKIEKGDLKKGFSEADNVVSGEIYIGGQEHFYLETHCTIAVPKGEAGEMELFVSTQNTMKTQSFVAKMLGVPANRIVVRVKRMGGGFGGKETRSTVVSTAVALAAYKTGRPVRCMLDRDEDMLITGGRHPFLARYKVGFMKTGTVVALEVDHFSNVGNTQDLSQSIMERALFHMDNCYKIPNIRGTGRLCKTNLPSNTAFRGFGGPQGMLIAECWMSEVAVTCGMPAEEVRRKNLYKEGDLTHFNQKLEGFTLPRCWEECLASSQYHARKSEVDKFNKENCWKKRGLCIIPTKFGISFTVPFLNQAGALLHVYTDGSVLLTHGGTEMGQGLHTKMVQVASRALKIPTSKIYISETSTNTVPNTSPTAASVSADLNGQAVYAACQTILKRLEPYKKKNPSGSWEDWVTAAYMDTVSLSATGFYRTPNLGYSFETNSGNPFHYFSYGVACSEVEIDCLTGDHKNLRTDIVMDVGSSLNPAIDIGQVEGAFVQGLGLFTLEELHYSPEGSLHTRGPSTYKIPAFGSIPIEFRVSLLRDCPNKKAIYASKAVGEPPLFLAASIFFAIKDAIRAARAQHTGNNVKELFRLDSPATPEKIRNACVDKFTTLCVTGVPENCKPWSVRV
# Description: Inhibitory activity against xanthine oxidase was evaluated by the level of the uric acid produced in the xanthine/xanthine oxidase system, which can be quantitatively analyzed by absorbance at 290 nm.
# 100 μL of 200 mM phosphate buffer (pH 7.5) containing 0.5 mM xanthine and 1 mM EDTA was mixed with 100 μL of the samples (1 mg/mL) to which 50 mU/ml xanthine oxidase was then added to induce the production of uric acid. The produced uric acid was quantitatively analyzed by absorbance at 290 nm.
# Allopurinol, a xanthine […] inhibitor used to treat gout, was used as a positive control.
SMILES,DPPH Radical Scavenging Activity IC50 [1] [µg/mL],Superoxide Anion Radical Scavenging Activity IC50 [2] [µg/mL],Xanthine oxidase Inhibition (%) [3] [%]
"COc1ccc(O)c(C(C)(C)C)c1 [BHA, butylated hydroxy anisole]",620 ± 110,1120 ± 240,
Oc1ncnc2[nH]ncc12 [Allopurinol],,,88.2 ± 2.1
